Data: patent publication US6878522B2, “Methods for the identification of compounds useful for the treatment of disease states mediated by prostaglandin D2” (priority 2000, dated 2005)

Tests used:
TP receptor = biological target: T1, TP receptor (Homo sapiens, UniProt P21731); conditions: cited from earlier work
T1 sequence (P21731 1-343): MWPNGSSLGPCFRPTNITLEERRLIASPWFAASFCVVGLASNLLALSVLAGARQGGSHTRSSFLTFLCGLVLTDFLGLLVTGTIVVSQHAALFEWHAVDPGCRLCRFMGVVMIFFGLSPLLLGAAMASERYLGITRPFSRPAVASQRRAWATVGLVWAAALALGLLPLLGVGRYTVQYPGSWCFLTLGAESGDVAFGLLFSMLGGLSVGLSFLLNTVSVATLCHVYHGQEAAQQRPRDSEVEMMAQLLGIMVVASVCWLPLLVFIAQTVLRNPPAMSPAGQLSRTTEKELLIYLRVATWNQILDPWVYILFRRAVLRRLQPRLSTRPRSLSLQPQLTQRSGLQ

human basophils = assay: Chemotaxis of human basophils; assay type: cell-based
Description: The chemotactic response of human T lymphocytes to PGD2, murine MDC and murine mSDF was also assayed. Chemotaxis was determined using a 48-well Boyden chamber (Neuroprobe, Cabin John, Md.), and 3.0 μm polycarbonate filters. Cells were resuspended (3-3.5×10^6 cells/ml) in RPMI 1640 supplemented with 10 mM HEPES and 1 mg/ml bovine serum albumin (Sigma, St. Louis, Mo.), and placed into the upper wells of the chamber. The compound to be tested was placed in the lower wells. The chambers were incubated for 90-120 minutes at 37° C. in a humidified CO2 incubator. At the end of the incubation period, the number of migrating cells on the filter (expressed per high power field) were enumerated microscopically. […] In FIG. 4, the chemotactic response of human basophils to PGD2 and C5a is shown.

What does the source list for `CCCCC[C@H](O)/C=C/[C@H]1C(=O)C[C@H](O)[C@@H]1C/C=C\CCCC(=O)O` [PGD2, prostaglandin D2]?
Ki (TP receptor): 75 µM; chemotactic response of human basophils (human basophils): responsive to PGD2
